Assay results: patent US7887599B2, “Methods of use of biodegradable injectable implants” (priority 2001, dated 2011)

Legend:
[1] = cited from earlier work
guinea pigs [2] = conditions: guinea pig, in vivo
From the text: (§1) In a preliminary test, 39 guinea pigs were used to define product concentration for intradermal injections. All were adult animals and sex was not considered. They were divided in 4 different cages, each containing 9, 10, 10 and 10 animals. […] Evaluations were taken after the 3rd and 7th day.

skin [3] = conditions: documented; cited from earlier work
human patients [4] = assay: Intradermal application of glycolic acid in human patients; assay type: in vivo; conditions: 35 human patients, intradermal application of 5 ml at 0.01%
skin [5] = assay: Injection of GA alone, re-hydrating effect on the skin; assay type: in vivo, human
guinea pigs [6] = assay: Preliminary test of glycolic acid concentration for intradermal injections in guinea pigs
From the text: as §1

human patients [7] = conditions: in comparison to the retinoids (Personelli); cited from earlier work

| animals showing a minimal oedema and hyperaemia (guinea pigs [2]) [%] | animals with no edema and no hyperaemia (guinea pigs [2]) [%] | ideal dose (guinea pigs [2]) [%] | tissue finding (guinea pigs [6]; 0.1 ml at 0.2%, 3rd day) | tissue finding (guinea pigs [6]; 0.1 ml at 0.2%, 7th day) | tissue finding (guinea pigs [6]; 0.1 ml at 0.3%, 3rd day) | tissue finding (guinea pigs [6]; 0.1 ml at 0.3%, 7th day) | Compound | solubility in water [1] | increase in skin moisture (skin [3]) [%] | adverse reactions in tissues (hyperemia, edema or discreet ecchymosis) (human patients [4]) | re-hydrating effect of the skin (skin [5]) | tissue finding (guinea pigs [6]; 0.1 ml at 0.1%, 3rd day) | tissue finding (guinea pigs [6]; 0.1 ml at 0.1%, 7th day) | local toxicity (human patients [7]) | systemic effect or comedomic action (human patients [7]) |
| --- | --- | --- | --- | --- | --- | --- | --- | --- | --- | --- | --- | --- | --- | --- | --- |
| – | – | – | – | – | – | – | OC[C@@H](O)[C@@H](O)[C@H](O)[C@H](O)CO [D-mannitol] | readily soluble | – | – | – | – | – | – | – |
| 40 | 60 | 0.01 | moderate hyperaemia and edema | normal tissue (regular) | evident hyperaemia edema | epydermolyse and edema | O=C(O)CO [glycolic acid] | – | 300 | no adverse reactions | remarkable re-hydrating effect | tissue necrosis | ulcer | low local toxicity | no systemic effect or comedomic action |
